Values of other authors as cited in patent US20080132413A1, “Methods for the Improvement of Plant Tolerance Towards Glyphosate” (Bayer Cropscience AG, priority 2004, published 2008).

Tested on: glyphosate-resistant cotton (Roundup Ready Cotton)

SMILES: O=[N+]([O-])/N=C1\NCCN1Cc1ccc(Cl)nc1 [imidacloprid]
- increase in buds compared to a control not treated with imidacloprid (glyphosate treatment at the 4 leaf stage, after 45 days): 18%
- sum of the counts of buds and bolls versus untreated control (glyphosate treatment at the 4 leaf stage, after 62 days): matched that of the untreated control
- minus of buds compared to the control not treated with imidacloprid (glyphosate treatment at the 6 leaf stage, after 40 days): 14%
- sum of the counts of buds and bolls (yield) greater than that of the untreated control (glyphosate treatment at the 6 leaf stage, after 57 days): about 14%
